Experiment [1] has as its target recombinant 15-PGDH protein (Homo sapiens (Human), UniProt P15428). Put plainly: Inhibition of enzymatic activity of recombinant 15-PGDH in vitro.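 As to all read-outs here: activity of recombinant human 15-PGDH assayed in vitro using PGE2 as the substrate.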 Type of experiment: biochemical. The following applies: for inhibition at […]: read-out: Enzyme inhibition % ([…]), recombinant 15-PGDH, […] compound.
The next experiment concerns A549 cells. In words: PGE2 levels in medium of IL1-beta stimulated A549 cells. It is filed as cell-based. As to conditions: for Effect on PGE2 levels in medium, in words: IL1-beta stimulated A549 cells; for Reduction in levels of PGE2 in the medium, ranking: 15-PGDH activators.
The test system of experiment [2] is 15-PGDH-luciferase fusion reporter in V9m, LS174T and V503 cell lines. In words: 15-PGDH-luciferase fusion gene reporter induction in three colon cancer cell lines (stated jointly). It is filed as cell-based.
Experiment [3] relates to V9m reporter cell line expressing a 15-PGDH luciferase fusion construct. Put plainly: 15-PGDH-luciferase fusion gene reporter induction, V9m cell line. It is filed as cell-based. The following applies: […], % increased luciferase activity over basal level. From the text:
These cell lines are Vaco-9m (V9m), LS174T, Vaco503 (V503). […] Value of 1.0 on the Y-axis is the basal level of reporter activity in cells treated with drug free DMSO vehicle.
This Example provides data on a group of structural analogues of SW033291. Data provided includes level of induction of a 15-PGDH-luciferase fusion gene reporter, recorded as % increased luciferase activity over basal level, in three colon cancer cell lines, V9m, V503, and LS174T, engineered to contain the reporter, and treated with either 2.5 uM or 7.5 uM compound (i.e., Values are recorded on a scale where 100 indicates of doubling of luciferase activity over baseline level).
FIGS. 27(A-C) show graphs that show the level of compound's activity in inducing the 15-PGDH-luciferase fusion reporter in three different test cell line backgrounds, V9m, LS174T, and V503. Each compound was tested at two concentrations, 2.5 uM, and 7.5 uM. Y-axis is luciferase activity.
Data provided include level of induction of a 15-PGDH-luciferase fusion gene reporter, recorded as % induction of luciferase activity over basal level, in three colon cancer cell lines, V9m, V503, and LS174T, engineered to contain the reporter, and treated with either 2.5 uM or 7.5 uM compound. […] Additionally, for selected compounds is recorded the decrease in PGE2 levels in the media of compound treated A549 cells that have been stimulated with IL-1 beta. Additionally recorded for selected compounds is the effect on A549 cell viability as measured by a CellTiter-Glo assay, and the effect of compounds on A549 cell colony formation.

In experiment [4] the test system is 15-PGDH mRNA in colon cancer cell lines. In words: 15-PGDH mRNA levels by real-time PCR. Type of experiment: cell-based. The following applies: treated colon cancer cell lines, real-time PCR. From the text: In these studies parental cell lines (not containing the 15-PGDH-luciferase reporter) are employed.
A general note: In qPCR the cycle at which signal appears reflects the starting amount.

[5] abbreviates: read-out: Enzyme inhibition % (2.5 μM).
Where [6] appears, read: read-out: Enzyme inhibition % (7.5 μM).

Entries after “also recorded” stand apart in the source; their conditions may differ. Like-named read-outs stand apart in the source and are kept apart here.

Sequence of recombinant 15-PGDH protein (P15428 whole entry): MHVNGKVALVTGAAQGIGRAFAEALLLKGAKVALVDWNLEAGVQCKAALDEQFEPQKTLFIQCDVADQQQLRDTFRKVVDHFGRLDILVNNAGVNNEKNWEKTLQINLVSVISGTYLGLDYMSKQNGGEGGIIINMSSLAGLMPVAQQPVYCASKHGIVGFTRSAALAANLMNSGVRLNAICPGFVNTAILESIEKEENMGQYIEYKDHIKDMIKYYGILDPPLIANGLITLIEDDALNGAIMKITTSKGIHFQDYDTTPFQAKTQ

Regarding `COc1ccc(OC)c(N(CC(=O)Nc2cccnc2)S(=O)(=O)c2ccc(Br)cc2)c1` [SW203737], the inhibition (usually the change of the read-out against control, counted positive when it falls) at […] was 23.8% in experiment [1] (setting [5]) and 42.5% in experiment [1] (setting [6]). Further, the “Effect on PGE2 levels in medium, in words” value (shortened to “Effect on PGE2 levels”) in the experiment on A549 cells is reported as “show activity in lowering PGE2”. Further, the “Induction of 15-PGDH-luciferase reporter, in words” value (from here on “Induction”) in experiment [2] was “active in inducing 15-PGDH-luciferase reporter activity; also recorded: active in inducing the 15-PGDH-luciferase reporter”.
On to `CCCC[S+]([O-])c1sc2nc(-c3nccs3)cc(-c3ccccc3)c2c1N` (stereo not drawn) [SW208066, 2-(butylsulfinyl)-4-phenyl-6-(thiazol-2-yl)thieno[2,3-b]pyridin-3-amine], for which the “V9M reporter activity ([…])” value is recorded as 111.63% in experiment [3] and 122.72% in experiment [3] (100 = doubling). For the same compound, in the experiment with A549 cells (100 nM drug, 15-PGDH inhibitors), the “PGE2 levels in the medium, ranking” value is given as “highest levels of PGE2”.
Take `COc1ccc(S(=O)(=O)N(CC(=O)N2CCCCCC2)c2cc(OC)ccc2OC)cc1` [SW207998]: the “Inhibition of recombinant 15-PGDH, in words” value (from here on “Inhibition … in words”) in experiment [1] is reported as “much less inhibition of enzymatic activity of 15-PGDH; also recorded: lesser inhibitory activity at high concentration”. Further, the results for the inhibition at […] in experiment [1] (setting [5]) and in experiment [1] (setting [6]) were 8.09% and 14.4%, respectively. Moreover, the “Reduction in levels of PGE2 in the medium, ranking” value with A549 cells (100 nM drug) is reported as “greatest reduction in levels of PGE2”. In experiment [2], the “Induction” value is recorded as “activity equal to, or in some assays greater than, SW054384; also recorded: active in inducing the 15-PGDH-luciferase reporter”.
On to `COc1ccc(OC)c(N(CC(=O)Nc2cccnc2)S(=O)(=O)c2ccc(F)cc2)c1` [SW203736], for which the “Inhibition … in words” value in experiment [1] is listed as “lesser inhibitory activity at high concentration”. Also, the inhibition at […] stood at 1.7% in experiment [1] (setting [5]) and 24.9% in experiment [1] (setting [6]). Also, the “Effect on PGE2 levels” value in the experiment with A549 cells was “show activity in lowering PGE2”. Also, the “Induction” value in experiment [2] is on record as “active in inducing 15-PGDH-luciferase reporter activity; also recorded: active in inducing the 15-PGDH-luciferase reporter”.
On to `CCCC[S+]([O-])c1sc2nc(-c3cccs3)ccc2c1N` (stereo not drawn) [SW206980, 2-(butylsulfinyl)-6-(thiophen-2-yl)thieno[2,3-b]pyridin-3-amine], for which the “V9M reporter activity ([…])” value in experiment [3] was determined as 92.71%; in experiment [3] (100 = doubling) it was 99.37%. Further, in the experiment on A549 cells (IL-1β 16 h, compound 8 h, highest level of titration), the PGE2 levels achieved stood at 2500 pg/mL. In experiment [2], the “Induction” value was “highly active compound in reporter induction; also recorded: activity comparable to SW033291”.
With `COc1ccc(OC)c(N(CC(=O)Nc2csnc2C)S(=O)(=O)c2ccccc2)c1` [SW203703], the results for the inhibition at […] in experiment [1] (setting [5]) and in experiment [1] (setting [6]) were 26.5% and 58.9%, respectively. In addition, the “Effect on PGE2 levels” value in the experiment on A549 cells is recorded as “show activity in lowering PGE2”. The “Induction” value in experiment [2] is listed as “active in inducing the 15-PGDH-luciferase reporter”.
On to `COc1ccc(S(=O)(=O)N(CC(=O)N2CCOCC2)c2cc(OC)ccc2OC)cc1` [SW207997], for which, in experiment [1], the “Inhibition … in words” value is given as “much less inhibition of enzymatic activity of 15-PGDH; also recorded: lesser inhibitory activity at high concentration”. The inhibition at […] in experiment [1] (setting [5]) was -7.08%; in experiment [1] (setting [6]), -0.86%. Besides, the “Reduction in levels of PGE2 in the medium, ranking” value in the experiment with A549 cells (100 nM drug) is “greatest reduction in levels of PGE2”. For the same compound, the “Induction” value in experiment [2] was “activity equal to, or in some assays greater than, SW054384; also recorded: active in inducing the 15-PGDH-luciferase reporter”.
`COc1ccc(S(=O)(=O)N(CC(=O)Nc2cccnc2)c2cc(OC)ccc2OC)cc1` [SW202940]: the inhibition at […] is 24.3% in experiment [1] (setting [5]) and 63.3% in experiment [1] (setting [6]). Moreover, the “Induction” value in experiment [2] is reported as “active in inducing 15-PGDH-luciferase reporter activity”.
With `O=C(c1ccc2nc(-c3ccccc3)c(-c3ccccc3)nc2c1)N1CCCCC1` [SW145753], in the experiment on A549 cells, the “Effect on PGE2 levels” value is listed as “clear inhibition of 15-PGDH activity”. For the same compound, the “15-PGDH mRNA levels” value in experiment [4] is given as “do not in general alter 15-PGDH mRNA levels”. Besides, the “Induction” value in experiment [2] was “increase luciferase activity”.

These data come from patent US10301320B2, “Compositions and methods of modulating 15-PGDH activity” (CASE WESTERN RESERVE UNIVERSITY, priority 2012, dated 2019).
